Where only a bound is given, the exact number is not on record here.

This experiment has as its target T1, CYP11A1 (Homo sapiens, UniProt P05108).
T1 construct: endogenous in cells; host or cells: NCI-H295R
T1 sequence (P05108 40-521): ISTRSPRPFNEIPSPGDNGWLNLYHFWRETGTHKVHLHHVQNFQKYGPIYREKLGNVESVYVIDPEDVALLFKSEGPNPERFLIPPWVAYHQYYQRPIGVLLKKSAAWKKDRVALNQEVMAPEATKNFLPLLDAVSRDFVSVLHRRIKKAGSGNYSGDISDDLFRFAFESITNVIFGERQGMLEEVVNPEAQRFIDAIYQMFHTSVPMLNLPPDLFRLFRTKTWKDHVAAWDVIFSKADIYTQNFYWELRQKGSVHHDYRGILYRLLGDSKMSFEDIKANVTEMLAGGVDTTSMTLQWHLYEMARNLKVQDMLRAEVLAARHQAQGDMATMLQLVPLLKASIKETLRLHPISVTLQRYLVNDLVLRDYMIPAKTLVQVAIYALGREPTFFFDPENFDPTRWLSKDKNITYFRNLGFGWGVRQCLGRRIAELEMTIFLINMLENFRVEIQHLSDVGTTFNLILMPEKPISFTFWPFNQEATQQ
Briefly: CYP11A1 inhibition: pregnenolone biosynthesis measured by ELISA in NCI-H295R cells. The format is cell-based. The note with it: NCI-H295R cells treated for 24 hours, 10 concentrations in duplicates, read-out: IC50 on CYP11A1 inhibition (Group). The protocol:
The ability of the test compounds to inhibit pregnenolone biosynthesis was measured by enzyme-linked immunosorbent assay (ELISA) detecting pregnenolone (Abnova Pregnenolone ELISA Kit, KA1912). […] To determine the half maximal inhibitory concentration (IC50) of the test compounds on CYP11A1 inhibition, the cells were treated for 24 hours with increasing concentrations of the test compound. The final DMSO concentration was 0.4%. Medium samples were diluted 1:6 and pregnenolone amounts determined with ELISA. Manufacturer's recommended protocols were used and pregnenolone (Sigma-Aldrich, P9129) standards were prepared in cell culture medium. Absorbance (A450) was measured with Envision plate reader (PerkinElmer). All the test compounds were studied at 10 concentrations in duplicates.
As for `O=C(c1cncc(-c2cccc(OC(F)(F)F)c2)c1)N1CCOc2ccccc21` [Compound 1, (2,3-Dihydro-4H-benzo[b][1,4]oxazin-4-yl)(5-(3-(trifluoromethoxy)phenyl)-pyridin-3-yl)methanone], the IC50 was in the range of 201 to 2500 nM.
In the case of `O=C(c1cncc(-c2ccc(F)cc2)c1)N1CCOc2cc(F)ccc21` [Compound 2, (7-Fluoro-2,3-dihydro-4H-benzo[b][1,4]oxazin-4-yl)(5-(4-fluorophenyl)pyridin-3-yl)methanone] it was less than 50 nM.
In the case of `Cc1c(C(=O)N2CCOc3ccccc32)cncc1-c1ccccc1` [Compound 3, (2,3-Dihydro-4H-benzo[b][1,4]oxazin-4-yl)(4-methyl-5-phenylpyridin-3-yl)-methanone] it was 51 to 200 nM; in that of `Cc1c(C(=O)N2CCCc3ccccc32)cncc1-c1ccccc1` [Compound 4, (3,4-Dihydroquinolin-1(2H)-yl)(4-methyl-5-phenylpyridin-3-yl)methanone], 51 to 200 nM.
In the case of `Cc1c(C(=O)N2CCOc3ccccc32)cncc1-c1ccc(F)cc1` [Compound 5, (2,3-Dihydro-4H-benzo[b][1,4]oxazin-4-yl)(5-(4-fluorophenyl)-4-methylpyridin-3-yl)methanone] it was less than 50 nM; in that of `O=C(c1cc(-c2ccc(F)cc2)cnn1)N1CCOc2ccccc21` [Compound 7, (2,3-Dihydro-4H-benzo[b][1,4]oxazin-4-yl)(5-(4-fluorophenyl)pyridazin-3-yl)-methanone], 201 to 2500 nM; in that of `O=C(c1cncc(-c2ccc3ncoc3c2)n1)N1CCOc2ccccc21` [Compound 8, (6-(Benzo[d]oxazol-6-yl)pyrazin-2-yl)(2,3-dihydro-4H-benzo[b][1,4]oxazin-4-yl)methanone], less than 50 nM.
For `O=C(c1cncc(-c2cccc(OC(F)(F)F)c2)n1)N1CCOc2ccccc21` [Compound 9, (2,3-Dihydro-4H-benzo[b][1,4]oxazin-4-yl)(6-(3-(trifluoromethoxy)phenyl)-pyrazin-2-yl)methanone], the IC50 is 51 to 200 nM.
As to `O=C(c1cncc(-c2ccccc2)c1)N1CCOc2ccccc21` [Compound 10, (2,3-Dihydro-4H-benzo[b][1,4]oxazin-4-yl)(5-phenylpyridin-3-yl)methanone], the IC50 is less than 50 nM.
In the case of `O=C(c1cncc(-c2ccc3c(c2)OCC3)n1)N1CCCc2ccccc21` [Compound 12, (6-(2,3-Dihydrobenzofuran-6-yl)pyrazin-2-yl)(3,4-dihydroquinolin-1(2H)-yl)-methanone] it was less than 50 nM; in that of `O=C(c1cncc(-c2ccc3c(c2)OCC3)n1)N1CCOc2ccccc21` [Compound 13, (2,3-Dihydro-4H-benzo[b][1,4]oxazin-4-yl)(6-(2,3-dihydrobenzofuran-6-yl)pyrazin-2-yl)methanone], less than 50 nM.
With `COc1ccc(-c2cncc(C(=O)N3CCCc4ccccc43)n2)cc1` [Compound 14, (3,4-Dihydroquinolin-1(2H)-yl)(6-(4-methoxyphenyl)pyrazin-2-yl)methanone], the IC50 was less than 50 nM.
In the case of `O=C(c1cncc(-c2ccccc2)n1)N1CCCc2ccccc21` [Compound 15, (3,4-Dihydroquinolin-1(2H)-yl)(6-phenylpyrazin-2-yl)methanone] it was less than 50 nM.
With `O=C(c1cncc(-c2ccc(F)cc2)c1)N1CCCc2ccccc21` [Compound 16, (3,4-Dihydroquinolin-1(2H)-yl)(5-(4-fluorophenyl)pyridin-3-yl)methanone], the IC50 is less than 50 nM.
For `COc1ccc(-c2cncc(C(=O)N3CCCc4ccccc43)c2)cc1` [Compound 18, (3,4-Dihydroquinolin-1(2H)-yl)(5-(4-methoxyphenyl)pyridin-3-yl)methanone], the IC50 is less than 50 nM.
`O=C(c1cncc(-c2ccc(F)c(F)c2)c1)N1CCOc2ccccc21` [Compound 19, (5-(3,4-Difluorophenyl)pyridin-3-yl)(2,3-dihydro-4H-benzo[b][1,4]oxazin-4-yl)-methanone]: the IC50 was less than 50 nM.
Regarding `O=C(c1cncc(-c2ccc(F)cc2)n1)N1CCOc2ccccc21` [Compound 20, (2,3-Dihydro-4H-benzo[b][1,4]oxazin-4-yl)(6-(4-fluorophenyl)pyrazin-2-yl)-methanone], the IC50 is less than 50 nM.
For the compound `CN1CCN(C(=O)c2cncc(-c3ccc(F)cc3)n2)c2ccccc21` [Compound 21, (6-(4-Fluorophenyl)pyrazin-2-yl)(4-methyl-3,4-dihydroquinoxalin-1(2H)-yl)-methanone], the IC50 was less than 50 nM.
The figure for `CC1CCc2ccccc2N1C(=O)c1cncc(-c2ccc(F)cc2)n1` (stereo not drawn) [Compound 22, (6-(4-Fluorophenyl)pyrazin-2-yl)(2-methyl-3,4-dihydroquinolin-1(2H)-yl)-methanone] is less than 50 nM; for `COc1ccc(-c2cncc(C(=O)N3CCOc4ccccc43)c2)cc1` [Compound 23, (2,3-Dihydro-4H-benzo[b][1,4]oxazin-4-yl)(5-(4-methoxyphenyl)pyridin-3-yl)-methanone] it is less than 50 nM.
For `O=C(c1cncc(-c2ccc(F)cc2)c1)N1CCOc2ccccc21` [Compound 24, (2,3-Dihydro-4H-benzo[b][1,4]oxazin-4-yl)(5-(4-fluorophenyl)pyridin-3-yl)-methanone], the IC50 was less than 50 nM.
In the case of `COc1cccc(-c2cncc(C(=O)N3CCCc4ccccc43)n2)c1` [Compound 25, (3,4-Dihydroquinolin-1(2H)-yl)(6-(3-methoxyphenyl)pyrazin-2-yl)methanone] it was less than 50 nM; in that of `CC1COc2ccccc2N1C(=O)c1cncc(-c2ccc(F)cc2)n1` (stereo not drawn) [Compound 26, (6-(4-Fluorophenyl)pyrazin-2-yl)(3-methyl-2,3-dihydro-4H-benzo[b][1,4]oxazin-4-yl)methanone], less than 50 nM.
Take `O=C(c1cncc(-c2ccc(F)c(O)c2)c1)N1CCOc2ccccc21` [Compound 27, (2,3-Dihydro-4H-benzo[b][1,4]oxazin-4-yl)(5-(4-fluoro-3-hydroxyphenyl)-pyridin-3-yl)methanone]: the IC50 is less than 50 nM.
In the case of `O=C(c1cncc(-c2ccc(F)cc2F)c1)N1CCOc2ccccc21` [Compound 28, (5-(2,4-Difluorophenyl)pyridin-3-yl)(2,3-dihydro-4H-benzo[b][1,4]oxazin-4-yl)-methanone] it was less than 50 nM; in that of `O=C(c1cncc(-c2ccc3c(c2)OCC3)n1)N1CCOC2CCCCC21` (stereo not drawn) [Compound 29, (6-(2,3-Dihydrobenzofuran-6-yl)pyrazin-2-yl)(octahydro-4H-benzo[b][1,4]-oxazin-4-yl)methanone], less than 50 nM.
The figure for `O=C(c1cnnc(-c2ccc(F)cc2)c1)N1CCCc2ccccc21` [Compound 30, (3,4-Dihydroquinolin-1(2H)-yl)(6-(4-fluorophenyl)pyridazin-4-yl)methanone] is less than 50 nM; for `CN1CCN(C(=O)c2cncc(-c3ccc(F)cc3)c2)c2ccccc21` [Compound 31, (5-(4-Fluorophenyl)pyridin-3-yl)(4-methyl-3,4-dihydroquinoxalin-1(2H)-yl)-methanone] it is less than 50 nM.
The figure for `O=C(c1cncc(-c2ccc([N+](=O)[O-])cc2)c1)N1CCOc2ccccc21` [Compound 32, (2,3-Dihydro-4H-benzo[b][1,4]oxazin-4-yl)(5-(4-nitrophenyl)pyridin-3-yl)-methanone] is less than 50 nM.
Consider `O=C(c1cncc(C2=CCCCC2)c1)N1CCOc2ccccc21` [Compound 33, (5-(Cyclohex-1-en-1-yl)pyridin-3-yl)(2,3-dihydro-4H-benzo[b][1,4]oxazin-4-yl)methanone], for which the IC50 was less than 50 nM.
In the case of `COc1ccc(-c2cncc(C(=O)N3CCCc4ncccc43)c2)cc1` [Compound 34, (3,4-Dihydro-1,5-naphthyridin-1(2H)-yl)(5-(4-methoxyphenyl)pyridin-3-yl)-methanone] it was less than 50 nM; in that of `CCOC(=O)C1CN(C(=O)c2cncc(-c3ccc(F)cc3)n2)c2ccccc2O1` (stereo not drawn) [Compound 35, Ethyl 4-(6-(4-fluorophenyl)pyrazine-2-carbonyl)-3,4-dihydro-2H-benzo[b][1,4]-oxazine-2-carboxylate], less than 50 nM; in that of `O=C1CCN(C(=O)c2cncc(-c3ccccc3)c2)c2ccccc21` [Compound 36, 1-(5-Phenylnicotinoyl)-2,3-dihydroquinolin-4(1H)-one], less than 50 nM.
Turning to `O=C(c1cncc(-c2ccccc2)n1)N1CCCc2ncccc21` [Compound 37, (3,4-Dihydro-1,5-naphthyridin-1(2H)-yl)(6-phenylpyrazin-2-yl)methanone], the IC50 is less than 50 nM.
In the case of `COc1cccc(-c2cncc(C(=O)N3CCCc4ccccc43)c2)c1` [Compound 38, (3,4-Dihydroquinolin-1(2H)-yl)(5-(3-methoxyphenyl)pyridin-3-yl)methanone] it was less than 50 nM; in that of `O=C(c1cncc(-n2cccc2)c1)N1CCCc2ccccc21` [Compound 39, (5-(1H-Pyrrol-1-yl)pyridin-3-yl)(3,4-dihydroquinolin-1(2H)-yl)methanone], less than 50 nM.

(Values after US20240124431A1, “2,3-DIHYDRO-4H-BENZO[B][1,4]OXAZIN-4-YL)(5-(PHENYL)-PYRIDIN-3-YL)METHANONE DERIVATIVES AND SIMILAR COMPOUNDS AS CYP11A1 INHIBITORS FOR THE TREATMENT OF PROSTATE CANCER” (ORION CORPORATION, priority 2020, published 2024).)
